Measurements as given in patent US10722484B2, “Methods of cancer treatment” (K-Gen, Inc., priority 2016, dated 2020).

Assays:
[1] = tested on: HL-60 human promyelocytic leukemia cells; experiment: Combination viability/proliferation assays
Protocol: Briefly, cells at density of 1,000-10,000 cells/well in 96-well plates or 200-1600 cells/well in 384-well plates were seeded and incubated at 37° C. for 24 hours before addition of compounds. A series of 9 different concentrations of compound stocks (500×) were prepared by 3-fold serial dilutions in DMSO. […] After 96 hours of incubation, 35 μL or 50 μL of CellTiter Glo reagent (Promega) was added to each well and luminescence was measured after 10 minutes using EnVision (PerkinElmer). Luminescence from cells treated with DMSO alone was set as Max and % of inhibition was calculated as follows: Inhibition %=(Max-Sample value)/Max*100. Data were analyzed using XLfit software (ID Business Solutions Ltd.) or GraphPad software and IC50, relative IC50, and % of top inhibition were calculated.
The top concentration for the tested PKC activator compound was set at roughly the IC50 when the same testing compound was used as a single agent assayed in the same cell line. The next dose was either 3-fold or 10-fold dilution from the top concentration.

[2] = tested on: A549 lung cancer cell line; experiment: Combination viability/proliferation assays (384-well IC50 ratio, 96-well MacSynergy II); format: cell-based; conditions: for Combination in A549: K101A (synergism/antagonism): agent assayed in combination with K101A; for Combination in A549: K101A (synergism/antagonism) / Combination in A549: K102 (synergism/antagonism): * 2-3 concentrations, # full concentration ranges; for Combination in A549: K102 (synergism/antagonism): agent assayed in combination with K102; for Combination in A549: K101A (synergism/antagonism) / Combination in A549: K102 (synergism/antagonism) / Ratio ([…] DMSO IC50/combination IC50) / Combination in A549: K101E (synergism/antagonism): A549; for effect in combination with the PKC activator compounds in inhibiting the growth of A549 cells: PKC activator compounds (K101A, K101E, K102); for Combination in A549: K101E (synergism/antagonism): agent assayed in combination with K101E
Protocol: (§1) A 96-well MacSynergy II format for combination test was also used. […] The analysis was done with the SQRT(Data) scale and the four parameter Hill curve was fitted using XLfit5.1 (the MacSynergy II Excel Spreadsheet) for the inhibition data. Synergy (positive number) or Antagonism (negative number) volumes were calculated. […] Three-dimensional MacSynergy II graphs were generated where positive values indicated synergism and negative values indicated antagonism.

[3] = tested on: Panc2.13; experiment: Combination viability/proliferation assays; format: cell-based; conditions: for Combination effect, Panc2.13: K101A: agent in combination with K101A; for effect in combination with K101A: Panc2.13, K101A at 1 μM or at 0.67 μM
Protocol: as §1

[4] = in combination with 0.0002 μM K102, NC: no change
[5] = in combination with 0.002 μM K102, NC: no change
[6] = in combination with 0.005 μM K101A, NC: no change
[7] = in combination with 0.02 μM K102, NC: no change
[8] = in combination with 0.05 μM K101A, NC: no change
[9] = in combination with 0.5 μM K101A, ratio >2 synergistic, <0.5 antagonistic, NC: no change
[10] = in combination with 0.013 μM K102
[11] = in combination with 0.04 μM K102
[12] = in combination with 0.33 uM K101A

SMILES | effect in combination with K101A and K102 [1] | Combination in A549: K101A (synergism/antagonism) [2] | Combination in A549: K102 (synergism/antagonism) [2] | Combination effect, Panc2.13: K101A [3] | Ratio ([…] DMSO IC50/combination IC50) [2, 4] | Ratio ([…] DMSO IC50/combination IC50) [2, 5] | Ratio ([…] DMSO IC50/combination IC50) [2, 6] | Ratio ([…] DMSO IC50/combination IC50) [2, 7] | Ratio ([…] DMSO IC50/combination IC50) [2, 8] | Ratio ([…] DMSO IC50/combination IC50) [2, 9] | effect in combination with the PKC activator compounds in inhibiting the growth of A549 cells [2] | Combination in A549: K101E (synergism/antagonism) [2] | effect in combination with K101A [3] | Ratio ([…] DMSO IC50/combination IC50) [2, 10] | Ratio ([…] DMSO IC50/combination IC50) [2, 11] | Ratio ([…] DMSO IC50/combination IC50) [2, 12] | Ratio ([…] DMSO IC50/combination IC50) ([2]; in combination with 1 uM K101A) | effect in combination with K101A or K102 in inhibiting the growth of A549 cells [2] | other results
O=C(CCCCCCC(=O)Nc1ccccc1)NO [SAHA, suberoylanilide hydroxamic acid] | moderate or minor synergistic/additive effect | Antagonism (minor) | Antagonism (minor) |  |  |  |  |  |  |  |  |  |  |  |  |  |  |  | 
NC1(c2ccc(-c3nc4ccn5c(=O)[nH]nc5c4cc3-c3ccccc3)cc2)CCC1 [MK2206, 8-[4-(1-aminocyclobutyl)phenyl]-9-phenyl-2H-[1,2,4]triazolo[3,4-f][1,6]naphthyridin-3-one] |  | Synergism (strong) | Synergism (strong) | None | 0.81 | 3.13 | 0.68 | 5.57 | 2.13 | 6.03 | strong synergy | Synergism |  |  |  |  |  |  | 
O=C1[C@H](Cc2ccc(O)cc2)N2C(=O)CCN(C(=O)NCc3ccccc3)[C@H]2CN1Cc1cccc2ccccc12 [ICG-001, (6S,9aS)-Hexahydro-6-[(4-hydroxyphenyl)methyl]-8-(1-naphthalenylmethyl)-4,7-dioxo-N-(phenylmethyl)-2H-pyrazino[1,2-a]pyrimidine-1(6H)-carboxamide] |  | None | None | Synergism |  |  |  |  |  |  | insignificant synergism or antagonism |  | strong synergy | 0.96 | 1.10 | 1.05 | 1.10 | did not show synergy | 
Cc1nc(Nc2ncc(C(=O)Nc3c(C)cccc3Cl)s2)cc(N2CCN(CCO)CC2)n1 [Dasatinib] |  |  |  |  |  |  |  |  |  |  |  |  |  |  |  |  |  |  | increase of potency in inhibiting growth ([1]; combined with K101A (0.3 μM) or K102 (0.005 μM)): more than 10 fold
Cc1sc2c(c1C)C(c1ccc(Cl)cc1)=NC(CC(=O)OC(C)(C)C)c1nnc(C)n1-2 (racemic) [(±)-JQ1, tert-butyl 2-(4-(4-chlorophenyl)-2,3,9-triMethyl-6H-thieno[3,2-f][1,2,4]triazolo[4,3-a][1,4]diazepin-6-yl)acetate] | moderate or minor synergistic/additive effect | Antagonism | Antagonism |  |  |  |  |  |  |  |  |  |  | 0.55 | 0.57 | 0.27 | 0.09 | strong antagonist effect | 
O=C(c1cc(Cc2n[nH]c(=O)c3ccccc23)ccc1F)N1CCN(C(=O)C2CC2)CC1 [Olaparib] |  | Synergism | Synergism | Synergism | 0.78 | 1.43 | 0.91 | 2.74 | 1.38 | 2.76 | synergistic effect | None | strong synergy |  |  |  |  |  | Ratio ([…] DMSO IC50/combination IC50) ([2]; in combination with 0.03 μM K101E (footnote, Olaparib)): 1.15; Ratio ([…] DMSO IC50/combination IC50) ([2]; in combination with 0.3 μM K101E (footnote, Olaparib)): 1.30; Ratio ([…] DMSO IC50/combination IC50) ([2]; in combination with 3 μM K101E (footnote, Olaparib)): 1.97
